Laboratory results published in patent US20210077500A1, “PIKFYVE INHIBITORS FOR CANCER THERAPY” (Al Therapeutics, Inc., priority 2019, published 2021).

Experiments:
[1] = system: GP5d; test: CellTiter-Glo cell viability, single agent and combination (Chou-Talalay CI); type: cell-based; conditions: Homo sapiens, 120 h, GP5d (colorectal, KRAS G12D), average of two independent experiments
Procedure: (§1) For assessment of synergistic activity, cells of each cell line were seeded at optimal density for growth onto different 96-well plates and placed into a humidified incubator (37° C., 5% CO2) to adhere overnight. The following day, the cells on each plate were treated either with a single agent (a PIKfyve inhibitor, e.g., apilimod, or a RAS pathway inhibitor) or with a combination of the two agents. Cells were treated for 120 hours and then assayed for cell viability using CellTiter-Glo™ (Promega).
(§2) Using this method, a CI value is calculated based on the effects of each drug alone on cell viability (single agent treatment) and the effects of each drug combination, across all combinations of both agents tested. The single agent treatments consisted of 8 different concentrations of each single agent, obtained by serial dilution. The concentrations were chosen to provide a range above and below the IC50 value of the single agent (if achieved) in a given cell line.
(§3) D1 alone and D2 alone were estimated from Hill's equation:

[2] = system: LS411N; test: as above; type: cell-based; conditions: LS411N (colorectal, BRAF V600E); 120 h; average of two independent experiments
Procedure: as §1, §2, §3

[3] = system: BxPC3; test: CellTiter-Glo cell viability, single agent; type: cell-based; conditions: Homo sapiens, BXPC-3; BxPC3 (pancreatic, BRAF delV487-P492); 120 h; average of two independent experiments
Procedure: The cell lines used in this study were derived from lung cancers, colorectal cancers, pancreatic cancer and melanoma, as shown in Table 2 below.
(§4) For assessment of synergistic activity, cells of each cell line were seeded at optimal density for growth onto different 96-well plates and placed into a humidified incubator (37° C., 5% CO2) to adhere overnight. […] Cells were treated for 120 hours and then assayed for cell viability using CellTiter-Glo™ (Promega).

[4] = system: NCI-H820; test: 5-day viability assay; type: cell-based; conditions: 120 h, NCI-H820 (NSCLC, MET AMP), two independent experiments
[5] = system: SBC-5; test: 5-day viability assay; type: cell-based; conditions: Homo sapiens, 120 h, SBC-5 (SCLC, MET AMP), two independent experiments
[6] = system: NCI-H596; test: 5-day viability assay; type: cell-based; conditions: Homo sapiens, 120 h, NCI-H596 (NSCLC, MET Exon 14), two independent experiments
[7] = system: NCI-H1993; test: 5-day viability assay; type: cell-based; conditions: Homo sapiens, 120 h, NCI-H1993 (NSCLC, MET AMP), two independent experiments
[8] = system: NCI-H2023; test: 5-day viability assay; type: cell-based; conditions: 120 h, NCI-H2023 (NSCLC, Autocrine), two independent experiments
[9] = system: Hs746T; test: 5-day viability assay; type: cell-based; conditions: Homo sapiens, 120 h, Hs746T (gastric, AMP, Exon 14), two independent experiments
[10] = system: SNU-5; test: 5-day viability assay; type: cell-based; conditions: Homo sapiens, 120 h, SNU-5 (gastric, MET AMP), two independent experiments
[11] = system: COLO-205; test: 5-day CellTiter-Glo viability sensitivity screen; type: cell-based; conditions: Homo sapiens, 120 h; COLO-205 colorectal; 5-day viability assays; read-out: IC50 (sensitive/resistant cut-off)
[12] = system: SW1116; test: 5-day CellTiter-Glo viability sensitivity screen; type: cell-based; conditions: Homo sapiens, SW 1116, 120 h; SW1116 colorectal (KRAS p.G12A); 5-day viability assays; read-out: IC50 (sensitive/resistant cut-off)
[13] = system: HCT116; test: 5-day CellTiter-Glo viability sensitivity screen; type: cell-based; conditions: Homo sapiens, HCT-116, 120 h; HCT116 colorectal (KRAS p.G13D); 5-day viability assays; read-out: IC50 (sensitive/resistant cut-off)
[14] = system: SW620; test: 5-day CellTiter-Glo viability sensitivity screen; type: cell-based; conditions: Homo sapiens, SW-620, 120 h; SW620 colorectal (KRAS p.G12V); 5-day viability assays; read-out: IC50 (sensitive/resistant cut-off)
[15] = system: SW480; test: 5-day CellTiter-Glo viability sensitivity screen; type: cell-based; conditions: Homo sapiens, 120 h; SW480 colorectal (KRAS p.G12V); 5-day viability assays; read-out: IC50 (sensitive/resistant cut-off)
[16] = system: DLD1; test: 5-day CellTiter-Glo viability sensitivity screen; type: cell-based; conditions: Homo sapiens, DLD-1, 120 h; DLD1 colorectal (KRAS p.G13D); 5-day viability assays; read-out: IC50 (sensitive/resistant cut-off)
[17] = system: MDST8; test: 5-day CellTiter-Glo viability sensitivity screen; type: cell-based; conditions: 120 h; MDST8 colorectal; 5-day viability assays; read-out: IC50 (sensitive/resistant cut-off)
[18] = system: SW1417; test: 5-day CellTiter-Glo viability sensitivity screen; type: cell-based; conditions: Homo sapiens, 120 h; SW1417 colorectal; 5-day viability assays; read-out: IC50 (sensitive/resistant cut-off)
[19] = system: COLO-741; test: 5-day CellTiter-Glo viability sensitivity screen; type: cell-based; conditions: Homo sapiens, 120 h; COLO-741 colorectal; 5-day viability assays; read-out: IC50 (sensitive/resistant cut-off)
[20] = system: colorectal cancer cell lines; test: Sensitivity screen, share of sensitive cell lines; type: cell-based; conditions: nine out of 14 cell lines; 5-day CellTiter-Glo viability
[21] = system: cell lines harboring MET pathway activation; test: 5-day viability assay, share of sensitive cell lines; type: cell-based; conditions: 6/10 cell lines
[22] = system: EBC-1; test: 5-day viability assay, single agent and combination (Chou-Talalay CI); conditions: Homo sapiens, EBC-1, 120 h, read-out: Average IC50, EBC-1 (NSCLC, MET AMP); 5-day viability assay; two independent experiments
Procedure: as §1, §2, §3
(§5) Here, we utilized cells harboring MET pathway activation, particularly the EBC-1, MKN45 and Caki-1 cell lines. In addition to MET inhibitors, since MET activates the RAS pathway, we also assayed for synergistic activity with inhibitors of the RAS pathway in these cells.

[23] = system: MKN45; test: as above; conditions: Homo sapiens, MKN-45, 120 h, read-out: Average IC50, MKN45 (gastric, MET AMP); 5-day viability assay; two independent experiments
Procedure: as §1, §2, §3, §5

[24] = system: Caki-1; test: as above; conditions: Homo sapiens, CAKI-1, 120 h, read-out: Average IC50
Procedure: as §1, §2, §3, §5

[25] = system: A549; test: CellTiter-Glo cell viability, single agent and combination (Chou-Talalay CI); conditions: Homo sapiens, A549, 120 h, read-out: IC50 (single agent)
Procedure: as §4, §2

[26] = system: NCI-H1944; test: as above; conditions: Homo sapiens, NCI-H1944, 120 h, read-out: IC50 (single agent)
Procedure: as §4, §2

[27] = system: NCI-H2030; test: as above; conditions: Homo sapiens, NCI-H2030, 120 h, read-out: IC50 (single agent)
Procedure: as §4, §2

[28] = system: NCI-H1792; test: as above; conditions: Homo sapiens, NCI-H1792, 120 h, read-out: IC50 (single agent)
Procedure: as §4, §2

[29] = system: NCI-H2122; test: as above; conditions: Homo sapiens, NCI-H2122, 120 h, read-out: IC50 (single agent)
Procedure: as §4, §2

[30] = system: A427; test: as above; conditions: Homo sapiens, A-427, 120 h, read-out: IC50 (single agent)
Procedure: as §4, §2

[31] = system: RKO cells; test: as above; conditions: Homo sapiens
Procedure: as §1, §2
In each experiment for a given cell line, the combination treatments consisted of 8×8 or 64 different combination treatments.
Using this method, combinations with CI values>1 are considered antagonistic, CI values=1 are considered additive, and CI values<1 are considered synergistic.

[32] = system: A375; test: as above; conditions: Homo sapiens, A-375, 120 h, read-out: IC50 (single agent)
Procedure: as §4, §2

[33] = read-out: Viability (normalized)

Structure (SMILES): Cc1cccc(/C=N/Nc2cc(N3CCOCC3)nc(OCCc3ccccn3)n2)c1 [apilimod]
- IC50 [1]: 209 nM
- IC50 [2]: 89 nM
- IC50 [3]: > 400 nM
- IC50 [4]: 103 nM
- IC50 [5]: 108 nM
- IC50 [6]: 304 nM
- IC50 [7]: 877 nM
- IC50 [8]: 73 nM
- IC50 [9]: 108 nM
- IC50 [10]: 862 nM
- IC50 [11]: < 200 nM
- IC50 [12]: < 200 nM
- IC50 [13]: < 200 nM
- IC50 [14]: < 200 nM
- IC50 [15]: < 200 nM
- IC50 [16]: < 200 nM
- IC50 [17]: > 200 nM
- IC50 [18]: > 200 nM
- IC50 [19]: > 200 nM
- colorectal cancer cell lines sensitive to apilimod (average IC50 less than 200 nM) [20]: 64%
- cell lines harboring MET pathway activation sensitive to apilimod (IC50 less than 200 nM) [21]: 60%
- IC50 [22]: 113 nM
- IC50 [23]: 191 nM
- IC50 [24]: 373 nM
- IC50 [25]: 49 nM
- IC50 [26]: 36 nM
- IC50 [27]: 228 nM
- IC50 [28]: > 400 nM
- IC50 [29]: > 400 nM
- IC50 [30]: 80 nM
- IC50 ([31]; 120 h, read-out: IC50 (single agent), RKO (colorectal, BRAF V600E), 120 h, average of two independent experiments): > 200 nM
- viability at 0.023 µM [31, 33]: 98%
- viability at 0.035 µM [31, 33]: 93%
- viability at 0.053 µM [31, 33]: 96%
- viability at 0.079 µM [31, 33]: 93%
- viability at 0.119 µM [31, 33]: 97%
- viability at 0.178 µM [31, 33]: 70%
- viability at 0.267 µM [31, 33]: 53%
- viability at 0.4 µM [31, 33]: 44%
- IC50 [32]: 104 nM
